Source: the NIST ThermoML archive (doi:10.1021/je900550v)

Conditions: 101.33 kPa, Liquid; for speed of sound: Pulse-echo method; for mass density: Vibrating tube method

CCCC(=O)[O-].C[NH2+]CCO [N-methyl-2-hydroxyethylammonium butanoate]
Conditions	mass density [kg/m3]	speed of sound [m/s]	viscosity [mPa·s]
278.15 K	1052.71	1683.5	–
278.4 K	1052.55	1682.5	–
278.65 K	1052.38	1681.5	–
278.9 K	1052.21	1680.6	–
279.15 K	1052.04	1679.6	–
279.4 K	1051.88	1678.7	–
279.65 K	1051.71	1677.7	–
279.9 K	1051.54	1676.8	–
280.15 K	1051.38	1675.8	–
280.4 K	1051.21	1674.8	–
280.65 K	1051.04	1673.9	–
280.9 K	1050.88	1673	–
281.15 K	1050.71	1672	–
281.4 K	1050.54	1671.1	–
281.65 K	1050.38	1670.1	–
281.9 K	1050.21	1669.2	–
282.15 K	1050.02	1668.4	–
282.4 K	1049.85	1667.4	–
282.65 K	1049.69	1666.6	–
282.9 K	1049.52	1665.7	–
283.15 K	1049.35	1664.8	–
283.4 K	1049.19	1663.8	–
283.65 K	1049.02	1663	–
283.9 K	1048.85	1662.1	–
284.15 K	1048.68	1661.2	–
284.4 K	1048.52	1660.3	–
284.65 K	1048.35	1659.4	–
284.9 K	1048.18	1658.5	–
285.15 K	1048.02	1657.7	–
285.4 K	1047.85	1656.8	–
285.65 K	1047.68	1655.9	–
285.9 K	1047.52	1655	–
286.15 K	1047.35	1654.2	–
286.4 K	1047.18	1653.3	–
286.65 K	1047.01	1652.4	–
286.9 K	1046.85	1651.6	–
287.15 K	1046.68	1650.7	–
287.4 K	1046.51	1649.9	–
287.65 K	1046.34	1649	–
287.9 K	1046.17	1648.1	–
288.15 K	1046.01	1647.3	609.15
288.4 K	1045.84	1646.5	–
288.65 K	1045.67	1645.6	–
288.9 K	1045.5	1644.8	–
289.15 K	1045.34	1643.9	–
289.4 K	1045.17	1643	–
289.65 K	1045	1642.2	–
289.9 K	1044.83	1641.4	–
290.15 K	1044.66	1640.5	516.28
290.4 K	1044.5	1639.7	–
290.65 K	1044.33	1638.9	–
290.9 K	1044.16	1638	–
291.15 K	1043.99	1637.2	–
291.4 K	1043.82	1636.3	–
291.65 K	1043.65	1635.5	–
291.9 K	1043.48	1634.7	–
292.15 K	1043.32	1633.9	–
292.4 K	1043.15	1633.1	–
292.65 K	1042.98	1632.3	–
292.9 K	1042.81	1631.5	–
293.15 K	1042.64	1630.6	433.8
293.4 K	1042.47	1629.8	–
293.65 K	1042.3	1629	–
293.9 K	1042.13	1628.2	–
294.15 K	1041.96	1627.4	–
294.4 K	1041.79	1626.6	–
294.65 K	1041.63	1625.7	–
294.9 K	1041.45	1624.9	–
295.15 K	1041.29	1624.1	–
295.4 K	1041.12	1623.3	–
295.65 K	1040.95	1622.5	352.2
295.9 K	1040.78	1621.7	–
296.15 K	1040.61	1620.9	–
296.4 K	1040.44	1620.1	–
296.65 K	1040.27	1619.3	–
296.9 K	1040.1	1618.5	–
297.15 K	1039.93	1617.7	–
297.4 K	1039.76	1617	–
297.65 K	1039.59	1616.1	–
297.9 K	1039.42	1615.3	–
298.15 K	1039.24	1614.5	298.95
298.4 K	1039.08	1613.8	–
298.65 K	1038.9	1613	–
298.9 K	1038.73	1612.2	–
299.15 K	1038.56	1611.4	–
299.4 K	1038.39	1610.6	–
299.65 K	1038.22	1609.8	–
299.9 K	1038.05	1609	–
300.15 K	1037.88	1608.2	–
300.4 K	1037.71	1607.4	–
300.65 K	1037.54	1606.6	256.7
300.9 K	1037.37	1605.8	–
301.15 K	1037.2	1605	–
301.4 K	1037.03	1604.2	–
301.65 K	1036.87	1603.4	–
301.9 K	1036.7	1602.6	–
302.15 K	1036.54	1601.8	–
302.4 K	1036.38	1601	–
302.65 K	1036.2	1600.2	–
302.9 K	1036.04	1599.5	–
303.15 K	1035.87	1598.7	219.16
303.4 K	1035.71	1597.9	–
303.65 K	1035.54	1597.1	–
303.9 K	1035.38	1596.3	–
304.15 K	1035.21	1595.5	–
304.4 K	1035.04	1594.8	–
304.65 K	1034.88	1594	–
304.91 K	1034.71	1593.2	–
305.15 K	1034.54	1592.4	–
305.4 K	1034.38	1591.6	–
305.45 K	–	–	186.26
305.65 K	1034.21	1590.8	–
305.9 K	1034.04	1590.1	–
306.15 K	1033.88	1589.3	–
306.4 K	1033.71	1588.5	–
306.65 K	1033.54	1587.7	–
306.9 K	1033.38	1587	–
307.15 K	1033.2	1586.2	–
307.4 K	1033.04	1585.4	–
307.65 K	1032.87	1584.6	–
307.9 K	1032.7	1583.8	–
308.15 K	1032.53	1583.1	162.8
308.4 K	1032.37	1582.3	–
308.65 K	1032.2	1581.5	–
308.9 K	1032.03	1580.7	–
309.15 K	1031.86	1580	–
309.4 K	1031.69	1579.2	–
309.65 K	1031.52	1578.4	–
309.9 K	1031.35	1577.6	–
310.15 K	1031.18	1576.8	–
310.4 K	1031.01	1576	–
310.65 K	1030.85	1575.3	141.4
310.91 K	1030.68	1574.5	–
311.16 K	1030.51	1573.7	–
311.4 K	1030.34	1572.9	–
311.65 K	1030.17	1572.2	–
311.91 K	1030	1571.4	–
312.16 K	1029.83	1570.6	–
312.41 K	1029.65	1569.8	–
312.65 K	–	–	127.1
312.66 K	1029.49	1569	–
312.91 K	1029.32	1568.3	–
313.16 K	1029.14	1567.5	–
313.4 K	1028.97	1566.7	–
313.66 K	1028.8	1565.9	–
313.9 K	1028.64	1565.2	–
314.15 K	1028.46	1564.4	–
314.4 K	1028.29	1563.6	–
314.65 K	1028.12	1562.9	–
314.9 K	1027.95	1562.1	–
315.15 K	1027.78	1561.3	107.78
315.41 K	1027.61	1560.5	–
315.65 K	1027.43	1559.8	–
315.91 K	1027.26	1559	–
316.16 K	1027.09	1558.2	–
316.41 K	1026.92	1557.5	–
316.66 K	1026.75	1556.7	–
316.91 K	1026.58	1555.9	–
317.16 K	1026.41	1555.2	–
317.4 K	1026.23	1554.3	–
317.66 K	1026.06	1553.4	–
317.91 K	1025.89	1552.6	–
318.15 K	–	–	93.33
318.16 K	1025.72	1551.9	–
318.41 K	1025.55	1551.1	–
318.65 K	1025.37	1550.3	–
318.9 K	1025.2	1549.5	–
319.16 K	1025.03	1548.7	–
319.41 K	1024.86	1548	–
319.65 K	1024.69	1547.2	–
319.91 K	1024.51	1546.4	–
320.15 K	–	–	79.57
320.16 K	1024.34	1545.6	–
320.41 K	1024.17	1544.8	–
320.65 K	1024	1544	–
320.91 K	1023.82	1543.3	–
321.15 K	1023.65	1542.5	–
321.41 K	1023.47	1541.7	–
321.66 K	1023.3	1540.9	–
321.9 K	1023.13	1540.1	–
322.15 K	1022.96	1539.3	–
322.41 K	1022.78	1538.6	–
322.65 K	1022.61	1537.8	–
322.91 K	1022.43	1537	–
323.15 K	–	–	71.53
323.16 K	1022.26	1536.2	–
323.41 K	1022.08	1535.4	–
323.65 K	1021.91	1534.7	–
323.91 K	1021.74	1533.9	–
324.16 K	1021.56	1533.1	–
324.41 K	1021.39	1532.3	–
324.65 K	1021.22	1531.5	–
324.9 K	1021.04	1530.8	–
325.16 K	1020.87	1530	–
325.4 K	1020.69	1529.2	–
325.66 K	1020.52	1528.4	–
325.9 K	1020.35	1527.7	–
326.16 K	1020.17	1526.9	–
326.41 K	1019.99	1526.1	–
326.66 K	1019.82	1525.3	–
326.9 K	1019.65	1524.5	–
327.16 K	1019.47	1523.7	–
327.4 K	1019.29	1522.9	–
327.66 K	1019.12	1522.2	–
327.9 K	1018.95	1521.4	–
328.15 K	1018.77	1520.6	–
328.41 K	1018.6	1519.8	–
328.66 K	1018.42	1519	–
328.9 K	1018.25	1518.2	–
329.16 K	1018.07	1517.4	–
329.4 K	1017.9	1516.6	–
329.65 K	1017.72	1515.9	–
329.9 K	1017.54	1515.1	–
330.16 K	1017.37	1514.3	–
330.41 K	1017.19	1513.5	–
330.66 K	1017.01	1512.7	–
330.91 K	1016.84	1511.9	–
331.16 K	1016.66	1511.1	–
331.41 K	1016.48	1510.3	–
331.66 K	1016.3	1509.6	–
331.91 K	1016.13	1508.8	–
332.16 K	1015.96	1508	–
332.41 K	1015.78	1507.2	–
332.66 K	1015.6	1506.4	–
332.91 K	1015.43	1505.6	–
333.16 K	1015.25	1504.9	–
333.41 K	1015.07	1504.1	–
333.66 K	1014.89	1503.3	–
333.91 K	1014.72	1502.5	–
334.16 K	1014.54	1501.7	–
334.41 K	1014.36	1500.9	–
334.66 K	1014.18	1500.2	–
334.91 K	1014.01	1499.4	–
335.16 K	1013.83	1498.6	–
335.41 K	1013.65	1497.8	–
335.66 K	1013.47	1497	–
335.91 K	1013.3	1496.2	–
336.16 K	1013.12	1495.4	–
336.41 K	1012.94	1494.7	–
336.66 K	1012.76	1493.9	–
336.9 K	1012.58	1493.1	–
337.16 K	1012.4	1492.3	–
337.4 K	1012.22	1491.5	–
337.66 K	1012.04	1490.8	–
337.9 K	1011.86	1490	–
338.15 K	1011.69	1489.3	–
